This note sets out measurements from patent publication US7956077B2, “2-{-3,′2-(phenyl)-oxazol-4-ylmethoxyl-cyclohexyl methoxy}-propionic acid derivatives used as peroxisome proliferator-activated receptor (PPAR) ligands for the treatment of hyperlipidemia and diabetes” (Sanofi-Aventis Deutschland GmbH, priority 2004, dated 2011).

As a reminder, the EC50 is the concentration at which the effect is half-maximal. The low end stands for higher potency in that assay, the high end for lower potency in that assay.

In one experiment the target is T1, human PPARalpha (Homo sapiens, UniProt Q07869).
T1 construct: human PPARalpha receptor (amino acids S167-Y468); expressed in transfected cells; host or cells: HEK cells, stably transfected (pcDNA3 construct)
T1 sequence (Q07869 167-468): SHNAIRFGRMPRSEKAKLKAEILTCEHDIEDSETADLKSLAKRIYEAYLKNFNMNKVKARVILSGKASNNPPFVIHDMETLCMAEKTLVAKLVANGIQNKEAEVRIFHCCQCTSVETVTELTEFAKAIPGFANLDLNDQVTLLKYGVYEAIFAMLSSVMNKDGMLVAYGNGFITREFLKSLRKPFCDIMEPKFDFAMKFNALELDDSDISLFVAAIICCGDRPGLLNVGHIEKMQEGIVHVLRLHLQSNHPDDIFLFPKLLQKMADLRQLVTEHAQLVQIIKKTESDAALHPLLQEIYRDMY
The experiment in a line: Cellular PPARalpha assay (stably transfected HEK luciferase reporter cell line). In kind it is cell-based. Conditions: PPARalpha reporter cell line (HEK, GR-GAL4-humanPPARalpha-LBD), 24 h incubation. On the procedure:
Determination of EC50 Values of PPAR Agonists in the Cellular PPARalpha Assay
The potency of substances which bind to human PPARalpha and activate it in an agonistic manner is analyzed using a stably transfected HEK cell line (HEK=human embryo kidney) which is referred to here as PPARalpha reporter cell line. It contains two genetic elements, a luciferase reporter element (pdeltaM-GAL4-Luc-Zeo) and a PPARalpha fusion protein (GR-GAL4-humanPPARalpha-LBD) which mediates expression of the luciferase reporter element depending on a PPARalpha ligand. The stably and constitutively expressed fusion protein GR-GAL4-humanPPARalpha-LBD binds in the cell nucleus of the PPARalpha reporter cell line via the GAL4 protein portion to the GAL4 DNA binding motifs 5′-upstream of the luciferase reporter element which is stably integrated in the genome of the cell line. There is only little expression of the luciferase reporter gene without addition of a PPARalpha ligand if fatty acid-depleted fetal calf serum (cs-FCS) is used in the assay. PPARalpha ligands bind and activate the PPARalpha fusion protein and thereby bring about expression of the luciferase reporter gene. The luciferase which is formed can be detected by means of chemiluminescence via an appropriate substrate.
Construction of the Cell Line
The PPARalpha reporter cell line was prepared in two steps. Firstly, the luciferase reporter element was constructed and stably transfected into HEK cells. For this purpose, five binding sites of the yeast transcription factor GAL4 (in each case 5′-CGGAGTACTGTCCTCCGAG-3′) were cloned in 5′-upstream of a 68 bp-long minimal MMTV promoter (Genbank Accession # V01175). The minimal MMTV promoter section contains a CCAAT box and a TATA element in order to enable efficient transcription by RNA polymerase II. The cloning and sequencing of the GAL4-MMTV construct took place in analogy to the description of Sambrook J. et. al. (Molecular cloning, Cold Spring Harbor Laboratory Press, 1989). Then the complete Photinus pyralis luciferase gene (Genbank Accession # M15077) was cloned in 3′-downstream of the GAL4-MMTV element. After sequencing, the luciferase reporter element consisting of five GAL4 binding sites, MMTV promoter and luciferase gene was subcloned into a plasmid which confers zeozin resistance in order to obtain the plasmid pdeltaM-GAL4-Luc-Zeo. This vector was transfected into HEK cells in accordance with the statements in Ausubel, F. M. et al. (Current protocols in molecular biology, Vol. 1-3, John Wiley & Sons, Inc., 1995).
In a second step, the PPARalpha fusion protein (GR-GAL4-humanPPARalpha-LBD) was introduced into the stable cell clone described. For this purpose, initially the cDNA coding for the N-terminal 76 amino acids of the glucocorticoid receptor (Genbank Accession # P04150) was linked to the cDNA section coding for amino acids 1-147 of the yeast transcription factor GAL4 (Genbank Accession # P04386). The cDNA of the ligand-binding domain of the human PPARalpha receptor (amino acids S167-Y468; Genbank Accession # S74349) was cloned in at the 3′ end of this GR-GAL4 construct. The fusion construct prepared in this way (GR-GAL4-humanPPARalpha-LBD) was subcloned into the plasmid pcDNA3 (from Invitrogen) in order to enable constitutive expression therein by the cytomegalovirus promoter. This plasmid was linearized with a restriction endonuclease and stably transfected into the previously described cell clone containing the luciferase reporter element. The finished PPARalpha reporter cell line which contains a luciferase reporter element and constitutively expresses the PPARalpha fusion protein (GR-GAL4-humanPPARalpha-LBD) was isolated by selection with zeozin (0.5 mg/ml) and G418 (0.5 mg/ml).
The activity of PPARalpha agonists is determined in a 3-day assay which is described below: […]

The next experiment has as its target T2, human PPARgamma (Homo sapiens, UniProt P37231).
T2 construct: human PPARgamma receptor (amino acids 1152-Y475); expressed in transfected cells; host or cells: HEK cells, transiently transfected with pcDNA3-GAL4-humanPPARgammaLBD
T2 sequence (P37231 182-477 isoform P37231-2 limits assumed): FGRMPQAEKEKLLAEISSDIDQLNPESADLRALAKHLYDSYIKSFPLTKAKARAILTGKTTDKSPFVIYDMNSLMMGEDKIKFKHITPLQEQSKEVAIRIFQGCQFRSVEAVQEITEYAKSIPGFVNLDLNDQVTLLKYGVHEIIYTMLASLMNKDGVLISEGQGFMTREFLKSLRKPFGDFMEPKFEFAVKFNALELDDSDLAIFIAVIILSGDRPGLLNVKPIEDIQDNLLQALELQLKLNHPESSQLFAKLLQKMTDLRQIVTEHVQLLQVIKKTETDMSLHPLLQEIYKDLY
The experiment in a line: Cellular PPARgamma assay (transiently transfected HEK cells, luciferase reporter). In kind it is cell-based. Conditions: HEK cells transiently transfected with GAL4-humanPPARgammaLBD, 48 h incubation. From the text:
Determination of EC50 Values of PPAR Agonists in the Cellular PPARgamma Assay
A transient transfection system is employed to determine the cellular PPARgamma activity of PPAR agonists. It is based on the use of a luciferase reporter plasmid (pGL3basic-5×GAL4-TK) and of a PPARgamma expression plasmid (pcDNA3-GAL4-humanPPARgammaLBD). Both plasmids are transiently transfected into human mbryonic kidney cells (HEK cells). There is then expression in these cells of the usion protein GAL4-humanPPARgammaLBD which binds to the GAL4 binding sites of he reporter plasmid. In the presence of a PPARgamma-active ligand, the activated usion protein GAL4-humanPPARgammaLBD induces expression of the luciferase reporter gene, which can be detected in the form of a chemiluminescence signal after addition of a luciferase substrate. As a difference from the stably transfected PPARalpha reporter cell line, in the cellular PPARgamma assay the two components (luciferase reporter plasmid and PPARgamma expression plasmid) are transiently transfected into HEK cells because stable and permanent expression of the PPARgamma fusion protein is cytotoxic.
Construction of the Plasmids
The luciferase reporter plasmid pGL3basic-5×GAL4-TK is based on the vector pGL3basic from Promega. The reporter plasmid is prepared by cloning five binding sites of the yeast transcription factor GAL4 (each binding site with the sequence 5′-CTCGGAGGACAGTACTCCG-3′), together with a 160 bp-long thymidine kinase promoter section (Genbank Accession # AF027128) 5′-upstream into pGL3basic. 3′-downstream of the thymidine kinase promoter is the complete luciferase gene from Photinus pyralis (Genbank Accession # M15077), which is already a constituent of the plasmid pGL3basic used. The cloning and sequencing of the reporter plasmid pGL3basic-5×GAL4-TK took place in analogy to the description in Sambrook J. et. al. (Molecular cloning, Cold Spring Harbor Laboratory Press, 1989).
The PPARgamma expression plasmid pcDNA3-GAL4-humanPPARgammaLBD was prepared by first cloning the cDNA coding for amino acids 1-147 of the yeast transcription factor GAL4 (Genbank Accession # P04386) into the plasmid pcDNA3 (from Invitrogen) 3′-downstream of the cytomegalovirus promoter. Subsequently, the cDNA of the ligand-binding domain (LBD) of the human PPARgamma receptor (amino acids 1152-Y475; Accession # g1480099) 3′-downstream of the GAL4 DNA binding domain was cloned. Cloning and sequencing of the PPARgamma expression plasmid pcDNA3-GAL4-humanPPARgammaLBD again took place in analogy to the description in Sambrook J. et. al. (Molecular cloning, Cold Spring Harbor Laboratory Press, 1989). Besides the luciferase reporter plasmid pGL3basic-5×GAL4-TK and the PPARgamma expression plasmid pcDNA3-GAL4-humanPPARgammaLBD, also used for the cellular PPARgamma assay are the reference plasmid pRL-CMV (from Promega) and the plasmid pBluescript SK(+) from Stratagene. All four plasmids were prepared using a plasmid preparation kit from Qiagen, which ensured a plasmid quality with a minimal endotoxin content, before transfection into HEK cells.
The activity of PPARgamma agonists is determined in a 4-day assay which is described below. Before the transfection, HEK cells are cultivated in DMEM medium (#41965-039, Invitrogen) which is mixed with the following additions: 10% FCS (#16000-044, Invitrogen), 1% penicillin-streptomycin solution (#15140-122, Invitrogen) and 2 mM L-glutamine (#25030-024, Invitrogen).
Firstly, solution A, a transfection mixture which contains all four plasmids previously described in addition to DMEM medium, is prepared. […]

Consider `CCc1oc(-c2ccc(C(C)C)cc2)nc1CO[C@H]1CCC[C@@H](COC(C)(Cc2ccccc2)C(=O)O)C1` (mixture of isomers) [Example 20, 2-{(1R,3S)-3-[5-Ethyl-2-(4-isopropylphenyl)oxazol-4-ylmethoxy]cyclohexylmethoxy}-2-methyl-3-phenylpropionic acid], for which the concentration giving a half-maximal response (EC50) worked out at 0.54 nM at human PPARalpha and 170 nM at human PPARgamma.
On to `Cc1oc(-c2ccc3ccccc3c2)nc1CO[C@H]1CCC[C@@H](COC(C)(Cc2ccccc2)C(=O)O)C1` (mixture of isomers) [Example 21, 2-Methyl-2-{(1R,3S)-3-[5-methyl-2-(naphth-2-yl)oxazol-4-ylmethoxy]-cyclohexyimethoxy}-3-phenylpropionic acid], for which the EC50 turned out to be 5.8 nM at human PPARalpha and 600 nM at human PPARgamma.
Consider `Cc1oc(-c2ccc(F)cc2)nc1COC1CCCC(COC(C)(C)C(=O)O)C1` (centres unmarked) [**], for which the EC50 was 4.5 nM at human PPARalpha and more than 10000 nM on human PPARgamma.
For the compound `CCc1oc(-c2cccc(OC)c2)nc1CO[C@H]1CCC[C@@H](COC(C)(C)C(=O)O)C1` [Example 1, 2-{(1R,3S)-3-[5-ethyl-2-(3-methoxyphenyl)oxazol-4-ylmethoxy]cyclohexylmethoxy}-2-methylpropionic acid], the EC50 at human PPARalpha was 45 nM; on human PPARgamma it was 930 nM.
The like results for `CCc1oc(-c2ccc(C)cc2)nc1CO[C@H]1CCC[C@@H](COC(C)(C)C(=O)O)C1` [Example 2, 2-[(1R,3S)-3-(5-Ethyl-2-p-tolyloxazol-4-ylmethoxy)cyclohexylmethoxy]-2-methylpropionic acid] were, in that order, 3.5 nM and 2900 nM.
As to `CCc1oc(-c2ccc(CC(C)C)cc2)nc1CO[C@H]1CCC[C@@H](COC(C)(C)C(=O)O)C1` [Example 3, 2-{(1R,3S)-3-[5-Ethyl-2-(4-isobutylphenyl)-oxazol-4-ylmethoxy]cyclohexylmethoxy}-2-methylpropionic acid], the figures for the EC50 on human PPARalpha and at human PPARgamma were 19 nM and 670 nM, respectively.
`CCc1oc(-c2ccc3ccccc3c2)nc1CO[C@H]1CCC[C@@H](COC(C)(C)C(=O)O)C1` [Example 4, 2-{(1R,3S)-3-[5-Ethyl-2-(napth-2-yl)oxazol-4-ylmethoxy]cyclohexylmethoxy}-2-methylpropionic acid]: the figures for the 50% effective concentration (EC50) at human PPARalpha and on human PPARgamma were 2 nM and 1100 nM, respectively.
In the case of `CCc1oc(-c2cccc(C(F)(F)F)c2)nc1CO[C@H]1CCC[C@@H](COC(C)(C)C(=O)O)C1` [Example 5, 2-{(1R,3S)-3-[5-Ethyl-2-(3-trifluoromethylphenyl)oxazol-4-ylmethoxy]cyclo-hexylmethoxy}-2-methylpropionic acid], the EC50 at human PPARalpha turned out to be 12 nM; at human PPARgamma, 1500 nM.
As for `Cc1oc(-c2ccc3ccccc3c2)nc1CO[C@H]1CCC[C@@H](COC(C)(C)C(=O)O)C1` [Example 7, 2-Methyl-2-{(1R,3S)-3-[5-methyl-2-(naphth-2-yl)oxazol-4-ylmethoxy]cyclo-hexylmethoxy}propionic acid], the concentration giving a half-maximal response (EC50) at human PPARalpha came out at 1.2 nM; on human PPARgamma, 2600 nM.
Turning to `COc1cccc(-c2nc(CO[C@H]3CCC[C@@H](COC(C)(C)C(=O)O)C3)c(C(C)C)o2)c1` [Example 9, 2-{(1R,3S)-3-[5-lsopropyl-2-(3-methoxypheny)oxazol-4-ylmethoxy]cyclo-hexylmethoxy}-2-methyl propionic acid], the EC50 came out at 320 nM on human PPARalpha and 390 nM at human PPARgamma.
